Results as given in US20100160443A1, “COMPOUNDS USEFUL FOR TREATING NEUROLOGICAL DISORDERS” (Yissum Research Development Company of The Hebrew …, priority 2003, published 2010).

Columns and labels:
[1] = Plasma drug concentration and pharmacokinetics after i.p. administration to SNL operated rats; assay type: in vivo, rat; conditions: for minimal plasma concentration associated with the antiallodynic effect: SNL rats; for CL/F / Cmax / MRT / Tmax / half-life: rat, ip
Experimental: 0.5% MC, and […] of blood were collected from the amputated tail tip at each of three time points after injection. Blood was withdrawn for group 1 at 15, 60 and 180 min after dosing; for group 2 at 30, 90 and 240 min after dosing and for group 3 at 45, 120 and 360 min after dosing. Plasma was immediately separated by centrifugation at 3000 g for 15 min and stored at −20° C. until analyzed.
Plasma levels of VPA and DID were determined by gas chromatography (GC). An HP5890 series II GC equipped with FID detector, HP7673 autosampler, for DID HP-5 capillary column (0.25 μm×15 m×0.25 mm) was used. The temperature program was as follows: injector temperature 250° C.; initial temperature, 60° C. for 3 min; gradient of 15° C. min-1 until 180° C.; hold 5 min. For each drug, plasma levels obtained from 3 rats at each time point were averaged. 25 μl of internal standard solution (50 mg L^−1 of VPD for the DID assay) and 200 μl of 0.1M NaOH were added to 50 μl of plasma. The mixture was vortexed, and 1 ml of chloroform was added. The phases were separated, and the chloroform was evaporated. The dry residue was redissolved in 50 μl of chloroform, and 1 μl was injected into the gas chromatograph. Calibration curves were prepared separately by spiking naïve rat plasma samples with 1.56, 2.5, 3.12, 6.25, 12.5, 25.0, 37.5, 50.0, 75.0 and 100.0 mg L^−1 of DID. The limit of quantification (LOQ) of the method was 1.56 μg/ml, and the coefficient of variation (CV %) was <15% at all analyzed concentrations including LOQ.
The temperature program was as follows: injector temperature 280° C.; oven temperature, 135° C. 30 μl of internal standard solution (250 mg L-1 of 1-methyl-1cyclohexane carboxylic acid, MCCA, in MeOH) and 125 μl of 5N Hydrochloric acid (HCl) were added to 250 μl of plasma. The mixture was vortexed, and 2 ml of chloroform was added. The phases were separated, and the 1 ml of NaOH was added. 200 μl of HCl 5N and 2 ml of chloroform were added to the aqueous phase. The organic layer was evaporated and dry residue was redissolved in 50 μl of chloroform, and 30 μl was injected into the gas chromatograph. […] LOQ of the method was 25 mg L-1, and the coefficient of variation (CV %) was <15% at all analyzed concentrations including LOQ.
PK parameters were determined by non-compartmental analysis using the pharmacokinetic software package WinNonlin, version 4.0.1 (SCI Software, Lexington, Ky., U.S.A.; Yamaoka, et al., 1978 (YAMAOKA, K., […], T., & UNO, T. (1978). Statistical moments in pharmacokinetics. J Pharmacokinet. Biopharm., 6, 547-558); Gibaldi & Perrier, 1982 (GIBALDI, M., & PERRIER, D. (1982). Pharmacokinetics (2nd ed.). pp. 199-219 Marcel Dekker: New York); Rowland & Tozer, 1995 (ROWLAND, M., & TOZER, T. (1995). Pharmacological Response. In: Clinical Pharamcokeintics. pp. 340-365) Baltimore: Williams & Wilkins)). The terminal half-life (t½) was calculated as 0.693/β, where β is the linear terminal slope of the concentration (C)-versus-time curve. The area under the C-versus-time curve (AUC) was calculated by trapezoidal rule with extrapolation to infinity. The mean residence time (MRT) was calculated from the quotient AUMC/AUC, where AUMC is the area under the concentration-time product versus time curve from zero to infinity. Total (apparent) clearance (CL/F) was calculated from the quotient of […] with F being the absolute bioavailability following i.p. administration. The apparent volume of distribution (Vβ/F) was calculated from the quotient of CL and β. The peak plasma concentration (Cmax) and the time to reach Cmax (tmax) were determined empirically by visual inspection.

[2] = system: maximal electroshock (MES) test; conditions: rat, in vivo, po; cited from earlier work
[3] = system: motor performance (rotarod test); experiment: Neurological motor dysfunction tests (accelerating rotarod, observation for sedation); conditions: for motor performance, time to fall off the rotarod: n=6, vehicle 118.0±2.3; for effect on motor performance (rotarod test) compared to vehicle: highest doses tested (VPA 400, DID 90 mg kg^−1 i.p.), p>0.05, n=6; for neurological motor dysfunction or sedation at the highest drug dose tested: normal rats
Experimental: On the day of testing, a baseline response was obtained, and rats were subsequently administered drug or vehicle. […] In addition, we examined our rats individually for signs of motor dysfunction and sedation as assessed by posture and gate during spontaneous and induced movement, grooming, chewing, stepping reflex, and startle reflex evoked by tapping on the cage.
For each drug and dose, attenuation of tactile allodynia (threshold measured in g) was measured. […] These areas under the response curve values for every group of rats per dose were evaluated against vehicle treatment using the nonparametric Wilcoxon one tailed test (dose of drug tested vs. vehicle on the same treatment). […] A p value <0.05 was considered statistically significant.

[4] = system: neuropathic pain due to spinal cord injury; conditions: double-blind placebo-controlled trial; cited from earlier work
[5] = DID 40 mg kg^−1 i.p., plasma, SNL operated rats

Structure (SMILES) | minimal plasma concentration associated with the antiallodynic effect ([1]; DID 40 mg kg^−1 i.p.) | Vβ/F [1, 5] | CL/F [1, 5] | Cmax [1, 5] | MRT [1, 5] | Tmax [1, 5] | half-life [1, 5] | MES-ED50 [2] | motor performance, time to fall off the rotarod ([3]; DID 90 mg kg^−1 i.p., 120 min after dosing) | effect on motor performance (rotarod test) compared to vehicle [3] | neurological motor dysfunction or sedation at the highest drug dose tested [3] | pain relief versus placebo [4] | minimal plasma concentration associated with the antiallodynic effect ([1]; VPA 300 mg kg^−1 i.p.) | CL/F ([1]; plasma, 300 mg/kg) | Cmax ([1]; plasma, 300 mg/kg) | MRT ([1]; plasma, 300 mg/kg) | Tmax ([1]; plasma, 300 mg/kg) | half-life ([1]; plasma, 300 mg/kg) | motor performance, time to fall off the rotarod ([3]; VPA 400 mg kg^−1 i.p., 60 min after dosing)
CC(C)C(C(N)=O)C(C)C [DID, diisopropylacetamide] | 7 mg/L | 1.2 L/kg | 8.33 mL/min/kg | 28 µg/mL | 2.4 h | 0.25 h | 1.5 h | 51 mg/kg | 103.8 ± 22.3 s | no significant effect | not sufficient to cause neurological motor dysfunction or sedation |  |  |  |  |  |  |  | 
CCCC(CCC)C(=O)O [VPA, Valproic acid, reference compound] |  |  |  |  |  |  |  |  |  | no significant effect | not sufficient to cause neurological motor dysfunction or sedation | no difference between VPA and placebo in relieving pain | 125 mg/L | 3.33 mL/min/kg | 515 µg/mL | 5.8 h | 0.5 h | 4.6 h | 96.8 ± 23.7 s
